Tests used:
[1] = molar heat capacity at constant pressure; settings: 101.33 kPa
[2] = for molar entropy: 101.33 kPa
[3] = Molar enthalpy of transition or fusion; settings: Crystal

[Cs+].[F-] [cesium fluoride (CsF)]
Settings	molar entropy, [2] [J/K/mol]	molar heat capacity at constant pressure, [1] [J/K/mol]
5 K, Crystal, Vacuum adiabatic calorimetry	0.08	0.16
10 K, Crystal, Vacuum adiabatic calorimetry	0.49	1.3
15 K, Crystal, Vacuum adiabatic calorimetry	1.54	4.39
20 K, Crystal, Vacuum adiabatic calorimetry	3.34	8.57
25 K, Crystal, Vacuum adiabatic calorimetry	5.65	12.33
30 K, Crystal, Vacuum adiabatic calorimetry	8.2	15.77
35 K, Crystal, Vacuum adiabatic calorimetry	10.86	18.9
40 K, Crystal, Vacuum adiabatic calorimetry	13.57	21.75
45 K, Crystal, Vacuum adiabatic calorimetry	16.28	24.36
50 K, Crystal, Vacuum adiabatic calorimetry	18.97	26.72
60 K, Crystal, Vacuum adiabatic calorimetry	24.21	30.78
70 K, Crystal, Vacuum adiabatic calorimetry	29.21	34.08
80 K, Crystal, Vacuum adiabatic calorimetry	33.94	36.74
90 K, Crystal, Vacuum adiabatic calorimetry	38.4	38.87
100 K, Crystal, Vacuum adiabatic calorimetry	42.59	40.59
110 K, Crystal, Vacuum adiabatic calorimetry	46.53	42.2
120 K, Crystal, Vacuum adiabatic calorimetry	50.27	43.53
130 K, Crystal, Vacuum adiabatic calorimetry	53.8	44.7
140 K, Crystal, Vacuum adiabatic calorimetry	57.15	45.59
150 K, Crystal, Vacuum adiabatic calorimetry	60.32	46.3
160 K, Crystal, Vacuum adiabatic calorimetry	63.33	46.86
170 K, Crystal, Vacuum adiabatic calorimetry	66.18	47.31
180 K, Crystal, Vacuum adiabatic calorimetry	68.9	47.69
190 K, Crystal, Vacuum adiabatic calorimetry	71.49	48
200 K, Crystal, Vacuum adiabatic calorimetry	73.95	48.28
210 K, Crystal, Vacuum adiabatic calorimetry	76.32	48.51
220 K, Crystal, Vacuum adiabatic calorimetry	78.58	48.73
230 K, Crystal, Vacuum adiabatic calorimetry	80.75	48.93
240 K, Crystal, Vacuum adiabatic calorimetry	82.84	49.12
250 K, Crystal, Vacuum adiabatic calorimetry	84.84	49.3
260 K, Crystal, Vacuum adiabatic calorimetry	86.78	49.48
270 K, Crystal, Vacuum adiabatic calorimetry	88.65	49.66
280 K, Crystal, Vacuum adiabatic calorimetry	90.46	49.84
290 K, Crystal, Vacuum adiabatic calorimetry	92.21	50.03
298.15 K, Crystal, Drop calorimetry	93.6	50.19
298.15 K, Crystal, Vacuum adiabatic calorimetry	93.6	50.19
300 K, Crystal, Drop calorimetry	93.91	50.23
300 K, Crystal, Vacuum adiabatic calorimetry	93.91	50.22
310 K, Crystal, Vacuum adiabatic calorimetry	95.56	50.42
320 K, Crystal, Vacuum adiabatic calorimetry	97.17	50.63
330 K, Crystal, Vacuum adiabatic calorimetry	98.73	50.86
340 K, Crystal, Vacuum adiabatic calorimetry	100.25	51.09
350 K, Crystal, Drop calorimetry	101.76	51.72
350 K, Crystal, Vacuum adiabatic calorimetry	101.74	51.33
400 K, Crystal, Drop calorimetry	108.79	53.82
450 K, Crystal, Drop calorimetry	115.27	56.28
500 K, Crystal, Drop calorimetry	121.34	58.95
550 K, Crystal, Drop calorimetry	127.09	61.78
600 K, Crystal, Drop calorimetry	132.59	64.69
650 K, Crystal, Drop calorimetry	137.88	67.68
700 K, Crystal, Drop calorimetry	143.01	70.72
750 K, Crystal, Drop calorimetry	148	73.8
800 K, Crystal, Drop calorimetry	152.86	76.9
850 K, Crystal, Drop calorimetry	157.61	80.02
900 K, Crystal, Drop calorimetry	162.28	83.17
950 K, Crystal, Drop calorimetry	166.86	86.32
973 K, Crystal, Drop calorimetry	168.94	87.78
973 K, Liquid, Drop calorimetry	191.65	70.56
1000 K, Liquid, Drop calorimetry	193.58	70.56
1050 K, Liquid, Drop calorimetry	197.03	70.56
1100 K, Liquid, Drop calorimetry	200.31	70.56
1150 K, Liquid, Drop calorimetry	203.44	70.56
1200 K, Liquid, Drop calorimetry	206.45	70.56
1250 K, Liquid, Drop calorimetry	209.33	70.56
1300 K, Liquid, Drop calorimetry	212.1	70.56
1350 K, Liquid, Drop calorimetry	214.76	70.56
1400 K, Liquid, Drop calorimetry	217.32	70.56

Settings	Normal melting temperature [°C]
[2], Crystal, DTA	699.6

[3]
Settings	Molar enthalpy of transition or fusion [kcal/mol]
DSC	5.28
enthalpy increment functions	5.11

— the NIST ThermoML archive (doi:10.1016/j.jct.2012.08.003)
